# According to US20160030440A1, “ANTI-TUMORAL COMPOSITION COMPRISING A PI3KBETA-SELECTIVE INHIBITOR AND A PI3KALPHA-SELECTIVE INHIBITOR” (SANOFI, priority 2013, published 2016):
# Tests used:
# [1] = test system: PC-3 cells; experiment: In vitro anti-proliferative activity, CelltiterGlo, ray design; type: cell-based, human; conditions: PC-3, single agent, 96 hours; brackets: interval
# Protocol: The human prostate cancer PC-3 cell line was purchased at ATCC (Ref number CRL-1435). The PC-3 cells were cultured in DMEM High Glucose medium supplemented with 10% FBS and 2 mM L-Glutamine.
# They were diluted serially, in DMSO following a 3 or 3.3-fold dilution step: then each solution was diluted 50-fold in culture medium containing 10% serum before being added onto cells with a 20-fold dilution factor. The DMSO concentration was 0.1% in controls and in all treated wells.
# (§1) A ray design method was used allowing the characterization of the interaction of the two compounds for several fixed proportion in the mixture. The ray design includes one ray for each single agent and 19 combination rays.
# PC-3 cells were plated at 1,000 cells/well in 384-well plates in appropriate culture medium and incubated for 6 hours at 37° C., 5% CO2. […] Cell growth was evaluated by measuring intracellular ATP using CelltiterGlo® reagent (Promega) according to the manufacturer's protocol. Briefly, CellTiterGlo® was added to each plate, incubated for 1 hour then luminescent signal was read on the MicroBeta Luminescent plate reader. Three experiments have been performed on the cell line. […]
# Growth inhibition percentage (GI %) was calculated according to the following equation: […]
# [2] = test system: HEC-116 cells; experiment: as above; type: cell-based, human; conditions: HEC-116, single agent, 96 hours; brackets: interval
# Protocol: The human endometrium adenocarcinoma cell line HEC-116 cell line was purchased at JCRB (Ref number JCRB1124 Batch 11072005). The HEC-116 cells were cultured in MEMa medium supplemented with 15% FBS and 2 mM L-Glutamine.
# Compounds (I) and (II) dilutions were prepared according to the material and methods of example 1. The final concentrations tested were defined by ray design method described below. The DMSO concentration was 0.1% in controls and in all treated wells.
# as §1
# HEC-116 cells were plated at 3,000 cells/well in 384-well plates in appropriate culture medium and incubated for 6 hours at 37° C., 5% CO2. […] Cell growth was evaluated by measuring intracellular ATP using CelltiterGlo® reagent (Promega) according to the manufacturer's protocol. Briefly, CellTiterGlo® was added to each plate, incubated for 1 hour then luminescent signal was read on the MicroBeta Luminescent plate reader.
# Three experiments have been performed on this cell line. For each experiment, two 384-well plates were used allowing working with two replicates for combination rays and with four replicates for single agent rays. […]
# [3] = molecular target: T1, mTOR (Homo sapiens, UniProt P42345); experiment: mTOR inhibition; type: biochemical; conditions: up to 10 μM
# [4] = molecular target: PI3Kalpha (Homo sapiens, UniProt P42336); conditions: PI3Kβ versus PI3Kalpha; cited from earlier work
# [5] = test system: 294 other kinases; conditions: at 10 μM; cited from earlier work
# [6] = molecular target: T1, mTOR; conditions: PI3Kβ versus mTOR; cited from earlier work
# [7] = molecular target: PI3Kgamma (Homo sapiens, UniProt P48736); conditions: PI3Kβ versus PI3Kgamma; cited from earlier work
# [8] = molecular target: PI3Kdelta (Homo sapiens, UniProt O00329); conditions: PI3Kβ versus PI3Kdelta; cited from earlier work
# PI3Kdelta, sequence (O00329 whole entry, species assumed): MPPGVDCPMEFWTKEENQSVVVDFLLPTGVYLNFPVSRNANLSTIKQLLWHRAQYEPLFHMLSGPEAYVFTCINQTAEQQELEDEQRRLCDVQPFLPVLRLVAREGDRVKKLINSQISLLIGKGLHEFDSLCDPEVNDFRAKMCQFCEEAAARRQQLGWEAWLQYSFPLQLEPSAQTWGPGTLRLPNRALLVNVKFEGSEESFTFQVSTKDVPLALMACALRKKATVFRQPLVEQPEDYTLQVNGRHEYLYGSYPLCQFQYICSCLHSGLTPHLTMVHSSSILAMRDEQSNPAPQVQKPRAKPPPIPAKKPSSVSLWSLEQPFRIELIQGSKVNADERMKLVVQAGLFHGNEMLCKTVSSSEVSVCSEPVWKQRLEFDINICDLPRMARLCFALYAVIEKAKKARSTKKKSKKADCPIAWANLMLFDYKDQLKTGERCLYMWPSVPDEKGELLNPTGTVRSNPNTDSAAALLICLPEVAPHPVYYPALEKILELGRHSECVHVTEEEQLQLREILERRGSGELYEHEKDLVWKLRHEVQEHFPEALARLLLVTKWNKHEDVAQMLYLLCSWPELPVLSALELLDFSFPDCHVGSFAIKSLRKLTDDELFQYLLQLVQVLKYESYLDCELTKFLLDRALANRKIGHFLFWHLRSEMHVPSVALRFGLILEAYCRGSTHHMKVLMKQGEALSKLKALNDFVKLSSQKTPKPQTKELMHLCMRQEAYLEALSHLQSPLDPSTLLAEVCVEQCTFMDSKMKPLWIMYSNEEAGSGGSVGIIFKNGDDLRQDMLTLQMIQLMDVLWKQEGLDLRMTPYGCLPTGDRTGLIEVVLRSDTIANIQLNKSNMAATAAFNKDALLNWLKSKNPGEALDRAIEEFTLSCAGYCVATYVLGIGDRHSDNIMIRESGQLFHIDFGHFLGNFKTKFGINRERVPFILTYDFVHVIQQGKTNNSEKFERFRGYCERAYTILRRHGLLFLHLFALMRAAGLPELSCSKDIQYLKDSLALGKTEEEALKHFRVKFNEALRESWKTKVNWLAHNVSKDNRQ
# PI3Kdelta, sequence (P27986 whole entry partner, species assumed): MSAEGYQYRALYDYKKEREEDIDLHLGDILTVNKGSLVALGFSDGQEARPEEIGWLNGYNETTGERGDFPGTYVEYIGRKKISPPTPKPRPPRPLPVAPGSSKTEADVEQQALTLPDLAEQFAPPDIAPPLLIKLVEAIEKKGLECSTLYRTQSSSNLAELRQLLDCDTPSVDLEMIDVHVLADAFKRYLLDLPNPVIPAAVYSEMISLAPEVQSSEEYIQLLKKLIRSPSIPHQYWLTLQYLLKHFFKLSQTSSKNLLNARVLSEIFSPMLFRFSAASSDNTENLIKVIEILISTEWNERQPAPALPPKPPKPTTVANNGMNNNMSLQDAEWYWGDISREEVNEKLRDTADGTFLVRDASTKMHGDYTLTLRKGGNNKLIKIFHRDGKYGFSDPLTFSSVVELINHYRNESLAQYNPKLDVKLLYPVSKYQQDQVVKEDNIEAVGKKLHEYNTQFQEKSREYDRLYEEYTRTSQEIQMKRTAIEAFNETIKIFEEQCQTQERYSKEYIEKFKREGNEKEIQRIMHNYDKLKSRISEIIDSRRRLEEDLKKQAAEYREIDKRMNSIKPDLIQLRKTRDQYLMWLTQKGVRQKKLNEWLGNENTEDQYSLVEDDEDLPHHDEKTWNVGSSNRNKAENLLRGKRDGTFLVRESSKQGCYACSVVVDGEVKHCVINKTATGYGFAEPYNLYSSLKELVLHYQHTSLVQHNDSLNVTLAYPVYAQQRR
# PI3Kalpha, sequence (P42336 whole entry, species assumed): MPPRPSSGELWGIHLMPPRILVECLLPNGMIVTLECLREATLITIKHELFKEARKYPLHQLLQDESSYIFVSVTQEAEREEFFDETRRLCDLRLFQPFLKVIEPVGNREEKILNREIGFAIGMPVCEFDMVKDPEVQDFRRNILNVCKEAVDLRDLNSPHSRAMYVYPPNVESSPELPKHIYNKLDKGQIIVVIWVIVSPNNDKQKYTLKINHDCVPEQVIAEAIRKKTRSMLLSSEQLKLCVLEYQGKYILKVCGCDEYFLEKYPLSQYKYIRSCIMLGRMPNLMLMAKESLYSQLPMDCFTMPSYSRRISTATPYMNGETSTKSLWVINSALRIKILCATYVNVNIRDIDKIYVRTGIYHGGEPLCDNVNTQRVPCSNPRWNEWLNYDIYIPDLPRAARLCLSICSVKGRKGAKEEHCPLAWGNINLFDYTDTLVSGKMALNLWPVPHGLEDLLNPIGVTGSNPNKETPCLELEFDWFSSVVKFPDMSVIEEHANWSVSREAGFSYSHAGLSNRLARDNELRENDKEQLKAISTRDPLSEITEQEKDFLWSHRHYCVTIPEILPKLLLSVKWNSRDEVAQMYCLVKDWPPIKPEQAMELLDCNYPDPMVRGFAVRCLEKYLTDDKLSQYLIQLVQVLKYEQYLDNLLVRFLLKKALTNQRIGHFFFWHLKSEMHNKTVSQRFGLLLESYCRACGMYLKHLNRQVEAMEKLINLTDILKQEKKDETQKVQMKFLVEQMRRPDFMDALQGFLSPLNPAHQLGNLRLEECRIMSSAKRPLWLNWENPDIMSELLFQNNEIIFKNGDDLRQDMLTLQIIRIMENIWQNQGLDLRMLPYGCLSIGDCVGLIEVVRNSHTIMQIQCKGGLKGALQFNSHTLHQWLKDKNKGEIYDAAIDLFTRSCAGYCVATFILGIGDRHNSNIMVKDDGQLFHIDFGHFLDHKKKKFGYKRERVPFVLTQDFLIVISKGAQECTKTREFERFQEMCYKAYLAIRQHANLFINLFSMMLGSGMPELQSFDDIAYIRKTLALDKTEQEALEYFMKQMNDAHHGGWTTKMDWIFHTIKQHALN
# PI3Kalpha, sequence (P27986 whole entry partner, species assumed): as the sequence (P27986 whole entry partner, species assumed) above
# PI3Kgamma, sequence (P48736 whole entry, species assumed): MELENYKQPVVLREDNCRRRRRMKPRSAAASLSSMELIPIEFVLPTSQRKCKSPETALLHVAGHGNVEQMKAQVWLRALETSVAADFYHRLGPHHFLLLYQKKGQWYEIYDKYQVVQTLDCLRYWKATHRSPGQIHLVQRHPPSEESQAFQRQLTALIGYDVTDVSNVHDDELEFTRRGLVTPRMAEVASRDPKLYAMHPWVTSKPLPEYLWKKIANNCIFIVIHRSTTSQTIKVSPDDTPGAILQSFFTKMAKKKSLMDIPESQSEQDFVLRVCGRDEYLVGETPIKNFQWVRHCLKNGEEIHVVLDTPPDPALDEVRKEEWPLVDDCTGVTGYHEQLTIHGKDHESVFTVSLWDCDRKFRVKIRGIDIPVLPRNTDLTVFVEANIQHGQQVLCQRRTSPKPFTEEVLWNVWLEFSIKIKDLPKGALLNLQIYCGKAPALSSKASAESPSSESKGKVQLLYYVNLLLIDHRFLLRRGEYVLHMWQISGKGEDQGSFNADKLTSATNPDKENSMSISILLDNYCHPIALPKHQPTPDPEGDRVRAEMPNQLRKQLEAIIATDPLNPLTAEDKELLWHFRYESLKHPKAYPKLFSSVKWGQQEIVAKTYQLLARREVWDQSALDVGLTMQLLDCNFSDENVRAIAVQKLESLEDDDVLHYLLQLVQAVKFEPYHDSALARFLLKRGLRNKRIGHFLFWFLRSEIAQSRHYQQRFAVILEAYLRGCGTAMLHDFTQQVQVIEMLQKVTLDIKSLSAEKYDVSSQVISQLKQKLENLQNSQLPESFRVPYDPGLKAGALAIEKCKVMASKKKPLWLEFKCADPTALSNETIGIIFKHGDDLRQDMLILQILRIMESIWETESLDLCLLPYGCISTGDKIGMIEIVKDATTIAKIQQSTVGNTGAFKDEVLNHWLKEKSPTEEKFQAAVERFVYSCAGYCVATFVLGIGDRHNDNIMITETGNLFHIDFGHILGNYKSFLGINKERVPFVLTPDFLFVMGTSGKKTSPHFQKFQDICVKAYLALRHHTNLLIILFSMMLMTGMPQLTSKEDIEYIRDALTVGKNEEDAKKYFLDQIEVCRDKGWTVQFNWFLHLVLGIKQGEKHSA
Structure (SMILES),Absolute IC40 (growth inhibition 40%) [1],Absolute IC40 (growth inhibition 40%) [2],inhibition of mTOR [3],selectivity over PI3Kalpha [4],inhibition of 294 other kinases [5],selectivity over mTOR [6],selectivity over PI3Kgamma [7],selectivity over PI3Kdelta [8]
"C[C@H]1Cc2ccccc2N1C(=O)Cc1nc(N2CCOCC2)cc(=O)[nH]1 [compound (I), 2-{2-[(2S)-2-methyl-2,3-dihydro-1H-indol-1-yl]-2-oxoethyl}-6-(morpholin-4-yl)pyrimidin-4(3H)-one]","20,200 nM","12,400 nM",not inhibit,–,–,–,–,–
"Cc1nc(NC(=O)N2CCC[C@H]2C(N)=O)sc1-c1ccnc(C(C)(C)C(F)(F)F)c1 [compound (II), (2S)-N1-[4-Methyl-5-[2-(2,2,2-trifluoro-1,1-dimethylethyl)-4-pyridinyl]-2-thiazolyl]-1,2-pyrrolidinedicarboxamide]","14,700 nM","8,630 nM",–,–,–,–,–,–
Cc1c(Cn2c(C)nc3c(C(=O)O)cc(N4CCOCC4)cc32)cccc1C(F)(F)F [compound (III)],–,–,–,> 1000 fold,less than 30%,> 1000 fold,> 1000 fold,12 fold
